Reference: patent EP1082319B1, “BENZOCARBAZOLE AND INDENOINDOLE DERIVED ESTROGENIC AGENTS” (Wyeth, priority 1998, dated 1999)

How the values were obtained:
[1] = target: T1, estrogen receptor (Homo sapiens, UniProt P03372); assay: In vitro estrogen receptor binding assay (competition with [3H]-17β-estradiol, cytosol of CHO cells overexpressing the receptor); settings: for IC50: read-out: Receptor Binding IC50's; for binding to the ER receptor, comparison in words: compared with the indenoindole Example 4, from Table 2
T1 construct: expressed in transfected cells; host or cells: CHO cells (ribosome-free cytosol)
T1 sequence (P03372 1-595): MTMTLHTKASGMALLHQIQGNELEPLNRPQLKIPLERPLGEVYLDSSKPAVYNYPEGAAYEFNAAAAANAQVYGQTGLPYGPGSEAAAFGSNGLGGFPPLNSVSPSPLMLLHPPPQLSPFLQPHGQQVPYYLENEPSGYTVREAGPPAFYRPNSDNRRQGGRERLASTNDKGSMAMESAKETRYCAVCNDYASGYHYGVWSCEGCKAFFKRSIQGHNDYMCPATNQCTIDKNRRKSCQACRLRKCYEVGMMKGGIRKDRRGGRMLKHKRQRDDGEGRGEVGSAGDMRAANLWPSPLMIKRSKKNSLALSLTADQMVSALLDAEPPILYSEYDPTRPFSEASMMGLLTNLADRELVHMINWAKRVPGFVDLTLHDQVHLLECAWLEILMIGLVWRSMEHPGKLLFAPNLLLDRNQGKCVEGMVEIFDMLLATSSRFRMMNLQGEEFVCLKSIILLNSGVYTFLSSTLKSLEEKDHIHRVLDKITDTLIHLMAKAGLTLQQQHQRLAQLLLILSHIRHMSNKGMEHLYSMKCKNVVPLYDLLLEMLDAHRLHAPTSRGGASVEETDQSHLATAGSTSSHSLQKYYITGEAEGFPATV
Procedure: The plates were washed twice with PBS and once with 10 mM Tris-HCl, pH 7.4, 1 mM EDTA. Cells were harvested by scraping the surface and then the cell suspension was placed on ice. Cells were disrupted with a hand-held motorized tissue grinder using two, 10-second bursts. The crude preparation was centrifuged at 12,000g for 20 minutes followed by a 60 minute spin at 100,000g to produce a ribosome free cytosol. The cytosol was then frozen and stored at -80°C. Protein concentration of the cytosol was estimated using the BCA assay with reference standard protein. […] The plate was incubated at room temperature for 2.5 h. At the end of this incubation period 150 uL of ice-cold dextran coated charcoal (5% activated charcoal coated with 0.05% […] dextran) was added to each well and the plate was immediately centrifuged at 99g for 5 minutes at 4°C. 200 uL of the supernatant solution was then removed for scintillation counting. […] Also, wells containing radioactivity but no cytosol were processed with charcoal to estimate unremovable DPM of [^3H] 17β-estradiol. Counts per minute (CPM) of radioactivity were automatically converted to disintegrated per minute (DPM) by the Beckman LS 7500 Scintillation Counter using a set of quenched standards to generate a H# for each sample. […]

[2] = target: T2, human estrogen receptor (Homo sapiens, UniProt P03372); assay: 2X VIT ERE infection luciferase assay in CHO cells stably transfected with the human estrogen receptor; type: cell-based; settings: for Infection Luciferase Activity, 1 uM + 17β estradiol: 1 uM compound + 1 nM 17β-estradiol, 24 h (tests for estrogen antagonism), percentage of activity as compared to 17β-estradiol; for Infection Luciferase Activity, 1 uM: 1 uM compound alone, 24 h, percentage of activity as compared to 17β-estradiol (agonism)
T2 construct: expressed in transfected cells
Procedure: Chinese Hamster Ovary cells (CHO) which had been stably transfected with the human estrogen receptor were maintained in DMEM + 10% fetal bovine serum (FBS). 48h prior to treatment the growth medium was replaced with DMEM lacking phenol red + 10% dextran coated charcoal stripped FBS (treatment medium). Cells were plated at a density of 5000 cells/well in 96-well plates containing 200 µL of medium/well.
Reporter DNA (Promega plasmid pGL2 containing two tandem copies of the vitellogenin ERE in front of the minimal thymidine kinase promoter driving the luciferase gene) was combined with the B-galactosidase expression plasmid pCH110 (Pharmacia) and carrier DNA (pTZ18U) in the following ratio: • 10uG of reporter DNA • 5uG of pCH110DNA • 5 uG of pTZ18U • 20 uG of DNA/1 mL of transfection solution
The DNA (20uG) was dissolved in 500 uL of 250 mM sterile CaCl2 and added dropwise to 500 uL of 2 X HeBS (0.28 M NaCl, 50 mM HEPES, 1.5 mM Na2HPO4, pH 7.05) and incubated at room temperature for 20 minutes. 20 uL of this mixture was added to each well of cells and remained on the cells for 16 h. […] Each treatment condition was performed on 8 wells (n=8) which were incubated for 24 h prior to the luciferase assay.
After 24h exposure to compounds, the media was removed and each well washed 2X with 125 uL of PBS lacking Mg^++ and Ca^++. After removing the PBS, 25 uL of Promega lysis buffer was added to each well and allowed to stand at room temperature for 15 min, followed by 15 min at -80°C and 15 min at 37°C. 20 uL of lysate was transferred to an opaque 96 well plate for luciferase activity evaluation and the remaining lysate (5 uL) was used for the B-galactosidase activity evaluation (normalize transfection). The luciferan substrate (Promega) was added in 100 uL aliquots to each well automatically by the luminometer and the light produced (relative light units) was read 10 seconds after addition.
To the remaining 5 uL of lysate 45 uL of PBS was added. Then 50 uL of Promega B-galactosidase 2X assay buffer was added, mixed well and incubated at 37°C for 1 hour. A plate containing a standard curve (0.1 to 1.5 milliunits in triplicate) was set up for each experimental run. The plates were analyzed on a Molecular Devices spectrophotometric plate reader at 410 nm. The optical densities for the unknown were converted to milliunits of activity by mathematical extrapolation from the standard curve.
The luciferase data was generated as relative light units (RLUs) accumulated during a 10 second measurement and automatically transferred to a JMP (SAS Inc) file where background RLUs were subtracted. The B-galactosidase values were automatically imported into the file and these values were divided into the RLUs to normalize the data. The mean and standard deviations were determined from a n=8 for each treatment.

For `COc1ccc2c(c1)Cc1c-2n(Cc2ccc(OCCN3CCCCC3)cc2)c2ccc(O)cc12` [Example 4, 2-Methoxy-5-[4-(2-piperidin-1-yl-ethoxy)-benzyl]-5,10-dihydro-indeno[1,2-b]indol-8ol], the IC50 [1] was 430 nM, the “Infection Luciferase Activity, 1 uM + 17β estradiol” value [2] was 83% and the “Infection Luciferase Activity, 1 uM” value [2] was -2%.
For `COc1ccc2c(c1)CCc1c-2n(Cc2ccc(OCCN3CCCCC3)cc2)c2ccc(O)cc12` [Example 13, 3-Methoxy-11-[4-(2-piperidin-1-yl-ethoxy)-benzyl]-5,11-dihydro-6H-benzo[a]carbazol-8-ol], the “binding to the ER receptor, comparison in words” value [1] was “bind better to the ER receptor than the indenoindole Example 4”, the IC50 [1] was 110 nM and the “Infection Luciferase Activity, 1 uM + 17β estradiol” value [2] was 1%. For the same molecule, the “Infection Luciferase Activity, 1 uM” value [2] was -7%.
In the case of `COc1ccc2c(c1)CCc1c-2n(Cc2ccc(OCCN3CCCCCC3)cc2)c2ccc(O)cc12` [Example 14], the “binding to the ER receptor, comparison in words” value [1] is reported as “bind better to the ER receptor than the indenoindole Example 4”, the IC50 [1] is reported as 190 nM and the “Infection Luciferase Activity, 1 uM + 17β estradiol” value [2] is reported as 8%. For the same molecule, the “Infection Luciferase Activity, 1 uM” value [2] was 1%.
